For this assay, the system named is RPEMYC^H2B-GFP cells. Put plainly: Phenotypic screening assay (mitotic arrest, polyploidy). Type of assay: cell-based. The note with it: 1 nM to 30 μM. As to the method:
We have previously developed a mechanism-informed phenotypic screening assay to identify novel antimitotic agents. Equipped with a prior understanding of the versatile functions of the chromosomal passenger protein (CPP) complex in orchestrating karyokinesis and cytokinesis, the screening assay is to score for phenotypes typically seen when the CPP complex is disabled. Specifically, the parameters for a positive hit are a temporary elevation of mitotic index (MI) at 24 hours of drug treatment and an accumulation of polyploid cells at 48 hours of drug treatment, indicative of mitotic arrest and cytokinetic failure respectively. These parameters exclude compounds that elicit only a prolonged arrest of cells in mitosis, a phenotype typically provoked by spindle toxins. The screening procedure is briefly summarized here. RPEMYC^H2B-GFP cells engineered to express a Histone 2B-EGFP fusion protein were passaged as batches of 96-well plates, 18-24 hours before exposure to the chemical compounds of the present disclosure at concentrations from 1 nM to 30 μM. At 24, 48 or 72 hours after initiation of treatment, cells were analyzed for either an arrest in mitosis or a change in DNA content by GE IN-Cell Analyzer 2000. As set forth in Table 2 below, a value of greater than or equal to 1 nM and less than or equal to 1.0 μM is marked “A”; a value greater than 1.00 μM and less than or equal to 10.0 μM is marked “B”; a value greater than 10.0 μM and less than or equal to 30.0 μM is marked “C”; and a value greater than 30.0 μM is marked “D.”

Where [1] appears, read: read-out: Min. Effective conc. for Polyploidy (≥5%).

Where two headings read alike, the source gives them in different places.

Turning to `CNC(=O)c1cc(OC)cc(Oc2ccnc3cc(OC)c(Br)cc23)c1` [Compound 90, 3-((6-bromo-7-methoxyquinolin-4-yl)oxy)-5-methoxy-N-methylbenzamide], the minimal effective concentration runs as follows: under setting [1], 1 to 10 µM; (read-out: Mitotic Arrest (≥5%)) 1 to 10 µM.
Turning to `COc1cc(N)cc(Oc2ccnc3ccc(Br)cc23)c1` [Compound 91, 3-((6-bromoquinolin-4-yl)oxy)-5-methoxyaniline], the minimal effective concentration reads like this: under setting [1], 0.001 to 1 µM; (read-out: Mitotic Arrest (≥5%)) 0.001 to 1 µM.
As to `COc1cc(Oc2ccnc3ccc(Br)cc23)cc(OC2CCOC2)c1` (stereo not drawn) [Compound 92, 6-bromo-4-(3-methoxy-5-((tetrahydrofuran-3-yl)oxy)phenoxy)quinoline], the minimal effective concentration is, setting by setting: under setting [1], 0.001 to 1 µM; (read-out: Mitotic Arrest (≥5%)) 0.001 to 1 µM.
Take `COc1cc(Oc2ccnc3ccc(Br)cc23)cc([N+](=O)[O-])c1` [Compound 93, 4-(3-methoxy-5-nitrophenoxy)-6-bromoquinone]: the minimal effective concentration runs as follows: under setting [1], 0.001 to 1 µM; (read-out: Mitotic Arrest (≥5%)) 0.001 to 1 µM.
Take `COc1cc(Oc2cc(C)nc3ccccc23)cc(-n2cccn2)c1` [Compound 96, 4-(3-methoxy-5-(1H-pyrazol-1-yl)phenoxy)-2-methylquinoline]: the minimal effective concentration under setting [1] lay within 0.001 to 1 µM and the minimal effective concentration (read-out: Mitotic Arrest (≥5%)) fell in the range of 0.001 to 1 µM.
As for `COc1cc(Oc2cc(Cl)nc3ccc(Br)cc23)cc([N+](=O)[O-])c1` [Compound 97, 4-(3-methoxy-5-nitrophenoxy)-6-bromo-2-chloroquinoline], the minimal effective concentration reads like this: under setting [1], over 30 µM; (read-out: Mitotic Arrest (≥5%)) over 30 µM.
Turning to `[2H]c1cc(Oc2cc(OC)cc([N+](=O)[O-])c2)c2cc(Br)ccc2n1` [Compound 98], the minimal effective concentration was 1 to 10 µM under setting [1] and 1 to 10 µM (read-out: Mitotic Arrest (≥5%)).
Consider `COC(=O)c1cc(OC)cc(Oc2ncnc3cc(OC)c(OC)cc23)c1` [Example 24, methyl 3-((6,7-dimethoxyquinazolin-4-yl)oxy)-5-methoxybenzoate], for which the “Along with Cell Death” value was “C (a value greater than 10.0 μM and less than or equal to 30.0 μM)”; the “Min. Effective conc. for Polyploidy (≥5%)” value is “C (a value greater than 10.0 μM and less than or equal to 30.0 μM)”; the “Mitotic Arrest (≥5%)” value was “C (a value greater than 10.0 μM and less than or equal to 30.0 μM)”; the “Proliferative arrest (>50%)” value was “C (a value greater than 10.0 μM and less than or equal to 30.0 μM)”.

Values taken from patent US20240239806A1, “COMPOUNDS, COMPOSITIONS AND METHODS OF TREATING DISORDERS” (Chengdu Anticancer Bioscience, Ltd., priority 2021, published 2024).
